{"source": "patent US11883430B2", "about": "“CD38-NAD+ regulated metabolic axis in anti-tumor immunotherapy” (MUSC FOUNDATION FOR RESEARCH DEVELOPMENT, priority 2016, dated 2024)", "key": {"Th1 cells [1]": {"tested_on": "Th1 cells", "experiment": "Intracellular cytokine (IFNγ, IL17) flow cytometry after PMA and ionomycin", "assay_type": "cell-based, mouse", "details": "Th1 subsets (FIGS. 12A and 12B)", "procedure": "FIGS. 12A-12D: Loss of Sirt1 expression and NAD+ levels on Th1/17 cell phenotype and function (see FIG. 5). (A) Purified CD4^+ T cells from C57BL/6 were used to differentiate to Th1/17 cells either alone or in the presence of Ex527, a pharmacological inhibitor of Sirt1. Cells were then restimulated with PMA and ionomycin for 4 hr in presence of golgi block to stain for intracellular accumulation of cytokines IFNγ and IL17. (B) Th1 cells were cultured either in presence or absence of NAD+ inhibitor FK866 (10 nM) and intracellular staining was performed for IFNγ and IL17. Data was acquired using FACS and analysis was carried out using FlowJo software. (C-D) Purified splenic CD4^+ T cells from either C57BL/6 WT or Sirt1fl/flCD4Cre (Sirt1KO) mouse were used to ex vivo program for Th1/17 cells. RNA was prepared and quantitative PCR analysis was performed for the expression of various glycolysis (C) and glutaminolysis (D) associated genes in either WT or Sirt1KO Th1/17 cells. Data in section A-D are representative of three independent experiments.\nT cell differentiation: Naïve CD4^+ T cells were purified from the total splenocytes of 6-9 weeks old WT (C57BL/6) and KO (Foxo1^fl/flLck^cre, Sirt1^fl/flCD4^cre, CD38KO) mice using CD4^+ T cell isolation kit (Miltenyi Biotec) according to manufacturer's protocol. […]"}, "[2]": {"tested_on": "B16-F10-HLA-A2+ murine melanoma", "experiment": "Adoptive T cell transfer, s.c. B16-F10-HLA-A2+ melanoma, tumor growth", "assay_type": "in vivo, mouse", "details": "Th1/17 differentiated ex vivo with FK866 or Ex527 vs untreated/vehicle (FIGS. 4E, 5F)"}, "Th1/17 cells [3]": {"tested_on": "Th1/17 cells", "experiment": "Intracellular cytokine (IFNγ, IL17) flow cytometry after PMA and ionomycin", "assay_type": "cell-based, mouse", "details": "WT T cells programmed in presence of Ex527; sentence says both Th17 and Th1/17 cells (FIG. 12A)", "source_text": "T cell differentiation: Naïve CD4^+ T cells were purified from the total splenocytes of 6-9 weeks old WT (C57BL/6) and KO (Foxo1^fl/flLck^cre, Sirt1^fl/flCD4^cre, CD38KO) mice using CD4^+ T cell isolation kit (Miltenyi Biotec) according to manufacturer's protocol. Total splenocytes from 6-9 weeks old TCR transgenic mouse TRP-1 (bears class-II restricted CD4^+ T cells) or Pmel (bears class-I restricted CD8^+ T cells) or TCR-I (bears class-I restricted CD8^+ T cells) were also used. Within experiments mice were age and sex matched. Purified naïve CD4^+ T cells or total splenocytes were differentiated to Th1 or Tc1 (10 ng/ml IL12, 50 U/ml IL2 and 10 μg/ml anti-IL4), Th17 or Tc17 (3 ng/ml TGFβ, 25 ng/ml IL6, 10 μg/ml anti-IL4 and 10 μg/ml anti-IFNγ), Th1/17 or Tc1/17 (20 ng/ml IL1β, 25 ng/ml IL6, 10 ng/ml IL12, 20 ng/ml IL23, 400 pg/ml TGFβ, 10 μg/ml anti-IL4, 5 μg/ml anti-IFNγ), iTreg (5 ng/ml TGFβ, 100 IU/ml IL2, 10 μg/ml anti-IL4 and 10 μg/ml anti-IFNγ or Th0 (50 IU/ml IL2) in presence of plate bound anti-CD3 (5 μg/ml) and anti-CD28 (5 μg/ml). For TRP-1, gp100 or Sv40 specific generation of different Th or Tc subsets, total splenocytes from either TRP-1, Pmel or TCR-I TCR transgenic mice were stimulated with 1 μg/ml respective peptides in presence of above-mentioned polarizing conditions. T cells were differentiated for three days in IMDM media supplemented with 10% FCS, 4 mM L-glutamine, 100 U/ml penicillin, 100 μg/ml streptomycin, 55 μM beta-mercaptoethanol under 7% CO2, atmospheric oxygen at 37° C. in a humidified incubator. For evaluation of intracellular cytokines by flow cytometry, T cells were re-stimulated with PMA (500 ng/ml) and Ionomycin (500 ng/ml) for 4 hr in presence of Glogi inhibitors. […]\nFlow cytometry: Staining for cell surface markers was performed by incubating cells with antibody at 1:200 dilutions in FACS buffer (0.1% BSA in PBS) for 30 min at 4° C. […] Samples were acquired on LSRFortessa and analysed with FlowJo software (Tree Star, OR)."}, "Th1/17 cells [4]": {"tested_on": "Th1/17 cells", "experiment": "qPCR gene expression in Th1/17 cells", "assay_type": "cell-based, mouse", "details": "Th1/17 differentiated with FK866 10 nM or Ex527 (FIGS. 4D, 5D)", "procedure": "Real-time quantitative-PCR: Total RNA was extracted from pellets of the indicated T cell subsets (2×10^6 cells) using Trizol reagent (Life technologies, Grand Island, NY). cDNA was generated from 1 μg total RNA using iScript cDNA Synthesis Kit (BioRad, Hercules, CA). SYBR Green incorporation quantitative real-time PCR was performed using a SYBR Green mix (Biorad, Hercules, CA) in the CFX96 Detection System (BioRad, Hercules, CA). Expression of different genes was quantified relative to Actb."}, "NAD+": {"tested_on": "NAD+", "experiment": "Intracellular NAD+ level", "assay_type": "cell-based, mouse", "details": "Th1/17 differentiated with 2DG 1 mM, DON 3 μM or FK866 10 nM (FIGS. 11K, 11L)", "procedure": "NAD^+, Sirt1 activity and Foxo1 activity assay: Intracellular NAD^+ level in T cells were measured spectrophotometrically following the manufacturer's protocol (Cayman chemical, Ann Arbor, MI). Using equal amounts of nuclear protein extracted by NE-PER Nuclear and Cytoplasmic Extraction Reagents (Thermo Fisher Scientific, Waltham, MA), Sirt1 activity (Universal Sirt1 Activity Assay Kit, Abcam, Cambridge, MA) and Foxo1 activity (FKHR transcription Factor Assay Kit, Active Motif, Carlsbad, CA) were determined as per manufacturer's protocol."}, "Th1 cells [5]": {"tested_on": "Th1 cells", "experiment": "Seahorse oxygen consumption rate with etomoxir", "assay_type": "cell-based, mouse", "details": "etomoxir 200 μM (FIG. 3J)", "source_text": "(§1) FIGS. 3A-3P: Hybrid Th1/17 cells are metabolically distinct from Th1 and Th17 cells and depend upon glutaminolysis. The ex vivo programmed Th1, Th17 and Th1/17 cells were used to determine: (A) Glucose uptake using 2NBDG. Adjacent bar diagram represents the cumulative data of mean fluorescence intensity (MFI) from three independent experiments. (B) ECAR time course in response to glucose, oligomycin and 2DG (left panel). […] (C) Intracellular expression of GAPDH by FACS. Adjacent bar represents cumulative data from 3 experiments. (D) Glycolysis associated genes using qPCR. Genes including Glut1, HKI, HKII, Pfkb1, Pkm2, and LdhA are lower in Th1/Th17 while Pfkb3 and Pgam 1 are higher. (E-G) Oxygen consumption rate (OCR) under basal condition and in response to indicated mitochondrial inhibitors. Graphs representing time course (E), basal OCR (F), and OCR/ECAR ratio (G). (H) Expression of CTP1a using qPCR. […] (M) Uptake of radiolabelled glutamine that was measured in count per minute (CPM). […] (P) TRP-1 Th1/17 cells differentiated either in presence of vehicle control (DMSO) or DON (3 μM) were adoptively transferred (0.5×10^6) in 9 days s.c. established B16-F10 melanoma tumor bearing mice and tumor growth was measured. […]\n(§2) Oxygen consumption rate (OCR) and Extracellular acidification rate (ECAR) was determined using Seahorse Xfe96 analyser (Agilent Technologies, Santa Clara, CA). […] OCR, a measure of OXPHOS, was analysed under basal condition or in response to 200 μM Etomoxir (Sigma-Aldrich, St. Louis, MO) followed by 1.0 μM oligomycin (Sigma-Aldrich, St. Louis, MO), 1.0 μM fluoro-carbonyl cyanide phenylhydrazone (FCCP) (Sigma-Aldrich, St. Louis, MO) and 2 μM rotenone (Sigma-Aldrich, St. Louis, MO) plus 100 nM antimycin A (Sigma-Aldrich, St. Louis, MO). ECAR, a measure of glycolysis was measured under basal conditions and in response to glucose (5.5 mM), Oligomycin (1.0 μM), 2-deoxyglucose (2-DG) (100 mM) (Sigma-Aldrich, St. Louis, MO)."}, "Th1/17 cells [6]": {"tested_on": "Th1/17 cells", "experiment": "Seahorse oxygen consumption rate with etomoxir", "assay_type": "cell-based, mouse", "details": "etomoxir 200 μM (FIG. 3K)", "source_text": "as §1, §2"}, "Th17 cells": {"tested_on": "Th17 cells", "experiment": "Seahorse oxygen consumption rate with etomoxir", "assay_type": "cell-based, mouse", "details": "etomoxir 200 μM (FIG. 3I)", "source_text": "as §1, §2"}}, "data": [{"smiles": "NC(=O)C1CCCc2c1[nH]c1ccc(Cl)cc21", "note": "(centres unmarked) [Ex527]", "values": [{"measurement": "IFNγ secreting fraction", "setting": "Th1 cells [1]", "result": "No significant difference"}, {"measurement": "tumor control by inhibitor-treated Th1/17 cells upon adoptive transfer", "setting": "[2]", "result": "reduced ability to control tumor growth as compared to the vehicle treated cells"}, {"measurement": "frequency of IL17+ population", "setting": "Th1/17 cells [3]", "result": "decreased frequency of IL17^+ population"}, {"measurement": "expression of stemness-associated genes", "setting": "Th1/17 cells [4]", "result": "markedly reduced"}]}, {"smiles": "O=CC[C@@H](O)[C@H](O)[C@H](O)CO", "note": "[2DG, 2-Deoxy-D-glucose]", "values": [{"measurement": "NAD+ levels in Th1/17 cells", "setting": "NAD+", "result": "increased the NAD^+ level in Th1/17 cells"}]}, {"smiles": "CCOC(=O)[C@@]1(CCCCCCOc2ccc(Cl)cc2)CO1", "note": "[etomoxir]", "values": [{"measurement": "OXPHOS", "setting": "Th1 cells [5]", "result": "mostly unaffected"}, {"measurement": "OXPHOS", "setting": "Th1/17 cells [6]", "result": "mostly unaffected"}, {"measurement": "OCR and SRC values", "setting": "Th17 cells", "result": "significantly depleted OCR and SRC values"}]}]}
